Where two headings read alike, the source gives them in different places.
How the values were obtained:
EcRelA = molecular target: T1, EcRelA (Escherichia coli, UniProt P0AG20); type: biochemical
T1 construct: gene relA

[1] = molecular target: Francisella tularensis RelA (Francisella tularensis subspecies tularensis SCHU S4); experiment: SEC

T1 sequence (P0AG20 whole entry): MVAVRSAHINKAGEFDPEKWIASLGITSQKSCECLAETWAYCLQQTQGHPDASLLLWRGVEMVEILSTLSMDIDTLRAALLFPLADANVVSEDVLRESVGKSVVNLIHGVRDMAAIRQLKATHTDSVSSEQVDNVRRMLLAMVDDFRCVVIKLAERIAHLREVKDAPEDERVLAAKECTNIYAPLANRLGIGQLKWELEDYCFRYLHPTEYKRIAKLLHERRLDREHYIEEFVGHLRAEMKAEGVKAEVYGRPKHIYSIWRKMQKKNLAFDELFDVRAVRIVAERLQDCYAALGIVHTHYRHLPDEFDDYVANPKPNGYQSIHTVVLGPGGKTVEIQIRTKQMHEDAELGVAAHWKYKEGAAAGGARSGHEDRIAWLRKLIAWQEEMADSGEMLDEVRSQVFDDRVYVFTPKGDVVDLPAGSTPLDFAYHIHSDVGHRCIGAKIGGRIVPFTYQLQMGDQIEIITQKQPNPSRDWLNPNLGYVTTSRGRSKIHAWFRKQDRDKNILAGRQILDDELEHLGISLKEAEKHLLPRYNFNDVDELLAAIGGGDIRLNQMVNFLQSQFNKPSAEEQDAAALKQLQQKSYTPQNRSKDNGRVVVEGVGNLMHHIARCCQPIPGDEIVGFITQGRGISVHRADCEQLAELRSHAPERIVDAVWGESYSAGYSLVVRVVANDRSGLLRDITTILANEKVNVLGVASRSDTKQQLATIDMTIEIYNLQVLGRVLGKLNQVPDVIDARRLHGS

Compound: Nc1ncnc2c1ncn2[C@@H]1O[C@H](COP(=O)(O)OP(=O)(O)OP(=O)(O)O)[C@@H](O)[C@H]1O [ATP]
- IP RP HPLC end-point assay of AMP formation (EcRelA; 2 mM ATP and 2 mM GTP, 0.5 μM RelA, with or without stalled ribosomal complexes, 15 mM MgCl2, pH 8.0, 30°C): Both EcRelA and FtRelA demonstrated basal levels of activity in the absence of stalled ribosomes

Compound: Nc1nc2c(ncn2[C@@H]2O[C@H](COP(=O)(O)OP(=O)(O)OP(=O)(O)O)[C@@H](O)[C@H]2O)c(=O)[nH]1 [GTP]
- IP RP HPLC end-point assay of AMP formation (EcRelA): Both EcRelA and FtRelA demonstrated basal levels of activity in the absence of stalled ribosomes

Compound: Francisella tularensis RelA (enzyme)
- stoichiometry N [1]: 2
